{
  "source": "patent US20050180982A1",
  "about": "“Cadherin-11 expression, an assay and treatment for cellular invasiveness” (THE UNIVERSITY OF BRITISH COLUMBIA, priority 1998, published 2005)",
  "key": {"[1]": {"tested_on": "cad-11 RNA transcript in human granulosa cells", "experiment": "Specificity of antisense in granulosa cells, Northern blot, cad-11 probe", "assay_type": "cell-based", "set-up": "dose or concentration left out as unconfirmed", "conditions": "24 hours, dose-dependent manner for OB-1", "method": "(§1) In order to determine the specificity of OB-1, the effect of OB-1 was determined in human granulosa cells. Human granulosa cells express three cadherin subtypes (cad-11, cad-6 and N-cad) as they undergo spontaneous luteinization in culture. Granulosa cells which had been cultured for 36 hours were treated with OB-1 or OB-3 (0.5-5 M). The cultures were maintained for a further 24 hours, after which the cells were harvested for Northern analysis. Northern blots were probed with cad-11, cad-6, or N-cadherin (neural cadherin) cDNA probes as previously described. OB-1 caused a reduction in the levels of the cad-11 RNA transcript in a dose-dependent manner but had no effect on cad-6 or N-cadherin mRNA levels. In contrast."}, "[2]": {"tested_on": "cad-6 mRNA in human granulosa cells", "experiment": "Specificity of antisense in granulosa cells, Northern blot, cad-6 probe", "assay_type": "cell-based", "conditions": "0.5-5 M, 24 hours", "method": "as §1"}, "[3]": {"tested_on": "N-cadherin mRNA in human granulosa cells", "experiment": "Specificity of antisense in granulosa cells, Northern blot, N-cadherin probe", "assay_type": "cell-based", "conditions": "0.5-5 M, 24 hours", "method": "as §1"}, "[4]": {"tested_on": "Cos-1 cells transfected with the steroid acute regulatory protein", "experiment": "Non-specific effects on cell number and steroidogenic capacity in Cos-1 cells", "assay_type": "cell-based", "set-up": "cell number (Coulter cell counter): dose or concentration left out as unconfirmed", "method": "Non-specific effects of the antisense oligonucleotides on cell viability and the steroidogenic capacity of cells was determined using Cos-1 cells transfected with the steroid acute regulatory protein (from Dr. J. F. Strauss, III. University of Pennsylvania, Philadelphia, Pa.). […] The COS-1 cells were cultured in the presence or absence of varying concentrations of OB-1 OR OB-3 (0.5-5 M) for 48 hours. The cell number present in each culture was determined using a Coulter™ cell counter and P4 concentrations present in the culture medium using a Progesterone RIA™ kit. As determined by these parameters."}, "[5]": {"tested_on": "cad-11 in cytotrophoblasts isolated from term placenta", "experiment": "Western blot of cad-11 in term placenta cytotrophoblasts treated with oligonucleotide", "assay_type": "cell-based, human", "conditions": "5 NI, further 24 or 48 hours", "method": "(§2) Cellular aggregation in these cultures is observed after approximately 12 hours, with syncytial structures being observed after approximately 24 hours. After 72 hours, multinucleated syncytium is the predominant cell feature in these cultures. As described above, the terminal differentiation and fusion of these cells is associated with an increase in cad-11 mRNA and protein expression levels and a concomitant decrease in E-cad expression.\n(§3) The effects of OB-1 on the differentiation of these trophoblasts isolated from term placenta was determined. Cytotrophoblasts were cultured for 0, 6, 12 or 24 hours before being treated with either OB-1 or OB-3 (5 NI). The cultures were maintained for a further 24 or 48 hours, after which the cells were harvested for Western blot analysis."}, "[6]": {"tested_on": "E-cad in cytotrophoblasts isolated from term placenta", "experiment": "Western blot of E-cad in term placenta cytotrophoblasts treated with oligonucleotide", "assay_type": "cell-based, human", "conditions": "5 NI, further 24 or 48 hours", "method": "as §2, §3"}, "[7]": {"tested_on": "cytotrophoblasts isolated from term placenta", "experiment": "Morphology of cytotrophoblasts by light microscopy and indirect immunofluorescence", "assay_type": "cell-based, human", "description": "The effect of OB-1 and OB-3 on the morphology of the cytotrophoblast was examined by light microscopy and indirect immunofluoresence."}, "[8]": {"tested_on": "villous cytotrophoblasts", "experiment": "P4 and hCG in culture medium of villous cytotrophoblasts (functional differentiation)", "assay_type": "cell-based, human", "conditions": "compared with OB-3 treated cells", "method": "To determine whether reduced cad-11 expression in villous cytotrophoblasts would affect the functional differentiation of the primary cell cultures, concentrations of P4 and hCG were measured in the culture medium. The number of cells present in these cell cultures was determined by DNA content."}, "[9]": {"tested_on": "villous cytotrophoblasts", "experiment": "Reversibility of oligonucleotide effects on villous cytotrophoblasts", "assay_type": "cell-based, human", "conditions": "48 hours with oligonucleotide, washed, further 24 hours", "method": "To determine whether the effects of OB-1 on villous cytotrophoblasts are reversible, cells were cultured in the presence of OB-1 or OB-3 for 48 hours. The cells were washed thoroughly with PBS. The culture medium was then replaced and the cells cultured for a further 24 hours. […] The majority of cells (90%) detached from the culture and dish. Cad-11 was not detected in the remaining cells."}, "[10]": {"tested_on": "BeWo choriocarcinoma cells", "experiment": "BeWo choriocarcinoma cells cultured with cAMP, differentiation and fusion", "assay_type": "cell-based"}, "[11]": {"tested_on": "cad-11 in decidual explants", "experiment": "Western blot of cad-11 in decidual explants", "assay_type": "cell-based, human", "set-up": "dose or concentration left out as unconfirmed", "method": "Co-cultures of decidua parietalis and villous placenta were established on a three-dimensional gel of rat tail collagen. The decidua and the villous tissue were cut into 1-2 mm cubes, explants were placed in 35 nun culture dishes containing 0.1 ml of the collagen mixture. After the gel had formed, a piece of villous tissue, suspended in 0.05 ml of culture medium was placed on to the exposed decidual surface. After 2 hours, the plates were flooded with culture medium. Stable adhesion between the villous and decidual tissues occurred within 48 hours. Samples are harvested after 48, 72, or 96 hours of culture. Tissues were embedded in OCT compound, snap frozen, and frozen section prepared. Blocks containing the co-cultures were cut in-full in order to obtain information about the three dimensional aspect of the contact sites. Contact sites were identified by hematoxylin staining and confirmed by immunostaining for cytokeratin. In the areas of contact, there was cytotrophoblast layering leading to localized erosion of the syncytial trophoblast and the formation of an extravillous column, which penetrates the underlying decidual explant.\nIn order to determine whether the cad-11 antisense oligonucleotides could decrease cad-11 expression in tissue explants, decidual explants were cultured in the presence of OB-1 or OB-3 (5 M) for 24 hours."}, "[12]": {"tested_on": "Villous cytotrophoblasts isolated from the human term placenta, cultured 72 hours"}, "[13]": {"tested_on": "human decidual cells"}, "[14]": {"tested_on": "PC3 cells treated with TGF-1"}, "[15]": {"tested_on": "human decidual cells", "experiment": "Effect on primary cultures of human decidual cells", "set-up": "cell interactions and attachment: dose or concentration left out as unconfirmed", "conditions": "for 24 hours"}, "[16]": {"tested_on": "PC3 cells treated with TGF-1", "experiment": "Effect of oligonucleotides on PC3 cells treated with TGF-1", "set-up": "cell interactions and attachment: dose or concentration left out as unconfirmed", "conditions": "for 24 hours"}},
  "data": [
    {"substance": "OB-1: cad-11 antisense oligonucleotide, 18 mer, phosphothiorate: GGC GGC TTG TAA ACA GTA (SEQ ID NO:1) (antisense GGCGGCTTGTAAACAGTA; all phosphorothioate, sugars by position and methylation of C not given here; listed as Homo sapiens)", "values": [
      {"measurement": "levels of the cad-11 RNA transcript", "setting": "[1]", "result": "reduction"},
      {"measurement": "cad-6 mRNA levels", "setting": "[2]", "result": "no effect"},
      {"measurement": "N-cadherin mRNA levels", "setting": "[3]", "result": "no effect"},
      {"measurement": "steroidogenic capacity (P4 concentrations in culture medium, RIA)", "setting": "[4]; 0.5-5 M for 48 hours", "result": "did not have a significant effect"},
      {"measurement": "cell number (Coulter cell counter)", "setting": "[4]; for 48 hours", "result": "did not have a significant effect"},
      {"measurement": "cad-11 expression with time in culture", "setting": "[5]", "result": "failed to up-regulate"},
      {"measurement": "E-cad levels", "setting": "[6]", "result": "remained constant"},
      {"measurement": "composition of cellular structures formed (fusion)", "setting": "[7]; indirect immunofluorescence for E-cadherin", "result": "mononucleate cytotrophoblasts"},
      {"measurement": "ability of the cytotrophoblasts to aggregate", "setting": "[7]; light microscopy", "result": "did not appear to affect"},
      {"measurement": "levels of P4 in the culture medium", "setting": "[8]", "result": "significantly lower"},
      {"measurement": "levels of hCG in the culture medium", "setting": "[8]", "result": "significantly lower"},
      {"measurement": "cad-11 in the remaining cells", "setting": "[9]", "result": "not detected"},
      {"measurement": "cell viability after wash-out", "setting": "[9]", "result": "no longer viable"},
      {"measurement": "cells detached from the culture dish", "setting": "[9]", "result": 90, "unit": "%"},
      {"measurement": "cellular differentiation and fusion", "setting": "[10]; cells cultured in the presence of cAMP for 12 hours", "result": "inhibiting cellular differentiation and fusion"},
      {"measurement": "membrane integrity of the syncytial structures", "setting": "[10]; syncytial structures formed after 24 hours of cAMP", "result": "disrupted the membrane integrity"},
      {"measurement": "cad-11 expression", "setting": "[11]", "result": "significantly reduced"},
      {"measurement": "viability of syncytial structures (trypan blue)", "setting": "[12]", "result": "no longer viable"},
      {"measurement": "structures observed (phase contrast microscopy)", "setting": "[12]; oligonucleotide added after 72 hours of culture, OB-1 for 24 hours", "result": "cellular debris"},
      {"measurement": "viability by trypan blue staining", "setting": "[13]", "result": "no longer viable"},
      {"measurement": "viability by trypan blue staining", "setting": "[14]", "result": "no longer viable"},
      {"measurement": "cell interactions and attachment", "setting": "[15]", "result": "lose interactions with one another and detach from the plastic in a dose-dependent manner"},
      {"measurement": "cell interactions and attachment", "setting": "[16]", "result": "lose interactions with one another, and detach from the plastic in a dose-dependent manner"}
    ]}
  ]
}
